This note sets out measurements from PMC4402584, “New Diterpenes from Cultures of the Fungus Engleromyces goetzii and Their CETP Inhibitory Activity” (Natural Products and Bioprospecting, 2015).

pIC50: −log10 of the molar value.

For the assay, the target named is T1, cholesterol ester transfer protein (CETP) (Oryctolagus cuniculus, UniProt P22687).
T1 sequence (P22687 2-497): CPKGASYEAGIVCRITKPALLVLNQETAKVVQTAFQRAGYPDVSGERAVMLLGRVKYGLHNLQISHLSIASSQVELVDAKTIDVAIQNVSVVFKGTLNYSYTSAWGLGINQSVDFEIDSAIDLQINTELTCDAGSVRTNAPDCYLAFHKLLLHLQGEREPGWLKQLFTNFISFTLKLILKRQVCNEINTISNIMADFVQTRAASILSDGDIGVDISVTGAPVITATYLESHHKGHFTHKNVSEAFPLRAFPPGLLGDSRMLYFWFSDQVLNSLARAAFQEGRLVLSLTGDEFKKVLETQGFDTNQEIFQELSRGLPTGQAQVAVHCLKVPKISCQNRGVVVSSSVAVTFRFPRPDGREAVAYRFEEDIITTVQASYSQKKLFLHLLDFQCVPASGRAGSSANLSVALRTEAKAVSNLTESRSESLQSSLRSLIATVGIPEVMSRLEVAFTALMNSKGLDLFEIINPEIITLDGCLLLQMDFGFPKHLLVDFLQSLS
Description: fluorescent neutral lipid transfer assay (BioVision CETP Inhibitor Screening Kit) with rabbit serum as CETP source. Format: biochemical.

Regarding `C=C[C@@H]1C(=C)CC[C@H]2[C@H]1CC[C@@H]1[C@]2(C)C[C@@H](O)C[C@]1(C)C(=O)O` [compound 1, engleromycenolic acid A], the pIC50 was 5.12.

The term pIC50 denotes the IC50 on a negative log10 scale, so that one unit is a factor of ten.
